Measured values from PubChem BioAssay AID434996 (Southern Research Specialized Biocontainment Screening …, 2010).
Active and inactive are the calls of the source.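 The calls were made as follows: active = inhibition above 30% at one or more tested concentrations in the dose response; inactive = inhibition below 30% at every tested concentration.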

What was measured:
[1] = PhoP-dependent GFP reporter suppression – synthesized compounds, round 3, SAR follow-up (AID 434996); details: S. Typhimurium PhoP-regulated promoter GFP reporter, 4 h; at 150 µM (top of the series)
[2] = test system: S. Typhimurium PhoP-regulated promoter GFP reporter, 4 h; test: as above

IC50 [2]	Compound	inhibition [1]
–	N#Cc1ccccc1NC(=S)NCc1ccc(Cl)cc1	-0.55% (inactive)
29.2 µM	S=C(NCCc1ccc(Cl)cc1)Nc1ccncc1	–
–	Cc1cccc(NC(=O)N2CCCN(Cc3ccccc3F)C2)c1	21.2% (inactive)
148 µM	O=C(Nc1ccc(I)cc1)N1CCCN(Cc2ccccc2F)C1	–
–	O=C(Nc1cccc(C(F)(F)F)c1)N1CCCN(Cc2ccccc2F)C1	8.93% (inactive)
–	Cc1ccc(NC(=O)N2CCCN(Cc3ccccc3F)C2)cc1	-3.01% (inactive)
–	O=C(Nc1ccc(Cl)cc1)N1CCCN(Cc2ccccc2Br)C1	26.3% (inactive)
–	Cc1ccccc1CNC(=S)Nc1ccncc1	15.3% (inactive)
–	N#Cc1ccc(NC(=S)NCc2ccc(Cl)cc2)cc1	-4.09% (inactive)
–	O=C(Nc1cccc(F)c1)N1CCCN(Cc2ccccc2F)C1	23.5% (inactive)
135 µM	O=C(Nc1ccc(Cl)cc1)N1CCCN(Cc2ccc(Br)cc2)C1	–
–	O=C(Nc1cccc(I)c1)N1CCCN(Cc2ccccc2F)C1	20.6% (inactive)
